The assay concerns HUVEC. Description: HUVEC growth inhibition assay (crystal violet). The format is cell-based. The following applies: Homo sapiens, 72 hours, read-out: IC50 Concentration, Growth Inhibition. On the procedure: HUVEC (1.5×10^3) are plated in a 96-well plate in 100 μl of EBM-2 (Clonetic # CC3162). After 24 hours (day 0), a test solution of Compound 1 (100 μl) is added to each well at 2× the desired concentration (5-7 concentration levels) in EBM-2 medium. On day 0, one plate is stained with 0.5% crystal violet in 20% methanol for 10 minutes, rinsed with water, and air-dried. The remaining plates are incubated for 72 hours at 37° C. After 72 hours, plates are stained with 0.5% crystal violet in 20% methanol, rinsed with water and air-dried. The stain is eluted with 1:1 solution of ethanol: 0.1 M sodium citrate (including day 0 plate), and absorbance is measured at 540 nm with an ELISA reader (Dyriatech Laboratories). Day 0 absorbance is subtracted from the 72 hour plates and data is plotted as percentage of control proliferation (vehicle treated cells).

Consider `CCCC1(CCC)CCC2(CCN(CCCN(CC)CC)C2)CC1.O=C(O)/C=C\C(=O)O.O=C(O)/C=C\C(=O)O` [Compound 1, N,N,-diethyl-8,8-dipropyl-2-azaspiro[4,5]decane-2-propanamine dimaleate], for which the IC50 turned out to be 2050 nM.

The values above are taken from patent publication US20050250801A1, “Method of treating cancer with azaspirane compositions” (priority 2003, published 2005).
